This is an account of results in patent US8222414B2, “Indole compounds as an inhibitor of cellular necrosis” (LG Life Sciences Ltd., priority 2007, dated 2012).

The subject of the first experiment is primary hepatocytes isolated from rats. Kind of experiment: Cell protective effects against doxorubicin in hepatocytes (WST-1 cell viability). Particulars: Hepatocyte; primary rat hepatocytes pretreated with compound for 30 min, then doxorubicin; viability by WST-1 after 24-48 h. The class given is cell-based. The procedure:
Various endogenous/exogenous attacks on the cells trigger the mechanisms of cell death which is broadly classified into two types, i.e. apoptosis or necrosis. Using these cell death mechanisms, in the present experimental example, primacy hepatocytes isolated from rats were treated with drugs which were clinically shown to result in serious side-effects of hepatocyte toxicity or various chemicals which derive cell death, and the compounds synthesized in the Examples were estimated for their hepatocyte protective effects, after 24-48 h. The substances used to derive hepatocyte death include CCl4, ActD, H2O2, doxorubicin, anti-Fas Ab/Actinomycin D, acetaminophen, EtOH, CdCl2, palmitate, stearate, cyclophosphamide, terfenadine, diclofenac, simvastatin, and adefovir. Primary hepatocytes were isolated using the method of Seglen P O (Experimental Cell Research 74 (1972) pp 450-454). Briefly, hepatocytes were isolated according to the two-step collagenase perfusion method, and dead cells were removed by low speed (500 rpm) centrifugation for 10 min using percoll gradient (Kreamer B L etc, In Vitro Cellular & Developmental Biology 22 (1986) pp 201-211). During this step, the viability of cells was maintained 90% or above. The cells were suspended in HepatoZYME media (Gibco BRL), and the number of cells was counted. 1.5×10^4 cells in 100 μl were placed into the collagen-coated 96-well plate (BD biocoat), and adhered on the bottom for 3-4 h.
In order to assess the hepatocyte protective effect, above adhered cells were pretreated with the Example compounds for 30 min. At this time, the concentration of the Example compounds were serially diluted by 2-fold or 3-fold over 5 steps starting from 30 uM, 10 uM or 1 uM depending on the experiments, and the final concentration of DMSO was adjusted to 0.2%. 30 min after the treatment by compounds, cells were treated by the substances deriving hepatocyte death or hepatotoxic drugs at the concentrations indicated in Table 1. After 24-48 h, the viability of cells was determined to estimate the hepatocyte protective effects. The viability of cells was determined using WST-1 (MK-400, […]) method by the absorbance at 440 nm. Hepatocyte protective effects of the Example compounds were represented by “EC50” which was calculated from measured values. “EC50” herein means the concentration of the compound at which 50% of maximum protective effect is observed in the experiment.
For `c1cc(NC2CCCC2)c2[nH]c(C3=NCCS3)cc2c1` [Example 1, Cyclopentyl-[2-(4,5-dihydro-1,3-thiazol-2-yl)-1H-indol-7-yl]-amine], the EC50 is greater than 1000 nM.
In the case of `OC[C@@H]1CSC(c2cc3cccc(NC4CCCC4)c3[nH]2)=N1` [Example 2, [(R)-2-(7-cyclopentylamino-1H-indol-2-yl)-4,5-dihydro-1,3-thiazol-4-yl]-methanol], the EC50 was found to be 100 nM.
In the case of `OCc1cc(NC2CCCC2)c2[nH]c(C3=N[C@H](CO)CS3)cc2c1` [Example 6, (R)-2-[7-cyclopentylamino-5-(hydroxymethyl)-1H-indol-2-yl]-4,5-dihydro-thiazol-4-yl-methanol], the EC50 amounted to 4930 nM.
The same measure, in the same setting: then `c1cc(NC2CCNCC2)c2[nH]c(C3=NCCS3)cc2c1` [Example 7, [2-(4,5-Dihydro-thiazol-2-yl)-1H-indol-7-yl]-piperidin-4-yl-amine], with 1170 nM; and `Cc1cc(NCC2CCOCC2)c2[nH]c(C3=N[C@H](CC(=O)O)CS3)cc2c1` [Example 8, [(R)-2-(5-methyl-7-(tetrahydropyran-4-yl)methylamino-1H-indol-2-yl)-4,5-dihydro-thiazol-4-yl]-acetic acid], with 410 nM; and `Cc1cc(NC2CCN(C(=O)C(F)(F)F)CC2)c2[nH]c(C3=N[C@@H](CC(=O)O)CS3)cc2c1` [Example 9, [(S)-2-(5-methyl-7-(1-trifluoroacetylpiperidin-4-yl)amino-1H-indol-2-yl)-4,5-dihydro-thiazol-4-yl]-acetic acid], with greater than 2000 nM.
Regarding `O=C(O)C[C@H]1CSC(c2cc3cccc(NCC4CCCCO4)c3[nH]2)=N1` (stereo partly drawn) [Example 10, 2-[(S)-2-(7-(tetrahydropyran-2-yl)methylamino-1H-indol-2-yl)-4,5-dihydro-thiazol-4-yl]-acetic acid], the EC50 is 600 nM.
As to `O=C(O)C[C@H]1CSC(c2cc3cccc(NC4CCOCC4)c3[nH]2)=N1` [Example 11, [(S)-2-(7-(tetrahydropyran-4-yl)amino-1H-indol-2-yl)-4,5-dihydro-thiazol-4-yl]-acetic acid], the EC50 was 2800 nM.
Consider `O=C(O)C[C@H]1CSC(c2cc3cccc(NCC4CCOCC4)c3[nH]2)=N1` [Example 12, [(S)-2-(7-(tetrahydropyran-4-yl)methylamino-1H-indol-2-yl)-4,5-dihydro-thiazol-4-yl]-acetic acid], for which the concentration for a half-maximal effect (EC50) was found to be 3250 nM.
On to `CC(=O)N1CCC(Nc2cc(C)cc3cc(C4=N[C@@H](CC(=O)O)CS4)[nH]c23)C1` (stereo partly drawn) [Example 13, [(S)-2-(5-methyl-7-(1-acetylpyrrolidin-3-yl)amino-1H-indol-2-yl)-4,5-dihydro-thiazol-4-yl]-acetic acid], for which the EC50 is 1130 nM.
Consider `O=C(O)C[C@@H]1CSC(c2cc3cc(Oc4ccccc4)cc(NCC4CCOCC4)c3[nH]2)=N1` [Example 15, [(R)-2-(5-phenoxy-7-(tetrahydropyran-4-yl)methylamino-1H-indol-2-yl)-4,5-dihydro-thiazol-4-yl]-acetic acid], for which the EC50 was determined as 600 nM.
With `O=C(O)C[C@H]1CSC(c2cc3cc(Oc4ccccc4)cc(NC4CCOCC4)c3[nH]2)=N1` [Example 16, [(S)-2-(5-phenoxy-7-(tetrahydropyran-4-yl)amino-1H-indol-2-yl)-4,5-dihydro-thiazol-4-yl]-acetic acid], the EC50 was found to be 1290 nM.
Regarding `O=C(O)C[C@H]1CSC(c2cc3cc(Cl)cc(NCC4CCOCC4)c3[nH]2)=N1` [Example 18, [(S)-2-(5-chloro-7-(tetrahydropyran-4-yl)methylamino-1H-indol-2-yl)-4,5-dihydro-thiazol-4-yl]-acetic acid], the EC50 worked out at 2420 nM.
With `Cc1cc(NC2CCC2)c2[nH]c(C3=N[C@@H](CC(=O)O)CS3)cc2c1` [Example 19, [(S)-2-(5-methyl-7-cyclobutylamino-1H-indol-2-yl)-4,5-dihydro-thiazol-4-yl]-acetic acid], the EC50 was found to be 350 nM.
On the same count and under the same terms, for `Cc1cc(NC2CCOC2)c2[nH]c(C3=N[C@@H](CC(=O)O)CS3)cc2c1` (stereo partly drawn) [Example 20, [(S)-2-(5-methyl-7-(tetrahydrofuran-3-yl)amino-1H-indol-2-yl)-4,5-dihydro-thiazol-4-yl]-acetic acid] the value was 5770 nM; for `Cc1cc(NCC2CC2)c2[nH]c(C3=N[C@@H](CC(=O)O)CS3)cc2c1` [Example 21, [(S)-2-(5-methyl-7-cyclopropylmethylamino-1H-indol-2-yl)-4,5-dihydro-thiazol-4-yl]-acetic acid], 300 nM.
As to `Cc1cc(NCC2CCCC2)c2[nH]c(C3=N[C@@H](CC(=O)O)CS3)cc2c1` [Example 23, [(S)-2-(5-methyl-7-cyclopentylmethylamino-1H-indol-2-yl)-4,5-dihydro-thiazol-4-yl]-acetic acid], the EC50 was 140 nM.
With `Cc1cc(NC2CCOCC2)c2[nH]c(C3=N[C@@H](CC(=O)O)CS3)cc2c1` [Example 25, [(S)-2-(5-methyl-7-(tetrahydropyran-4-yl)amino-1H-indol-2-yl)-4,5-dihydro-thiazol-4-yl]-acetic acid], the EC50 is 760 nM.
Consider `Cc1cc(NC2CCCC2)c2[nH]c(C3=N[C@@H](CC(=O)O)CS3)cc2c1` [Example 26, [(S)-2-(5-methyl-7-cyclopentylamino-1H-indol-2-yl)-4,5-dihydro-thiazol-4-yl]-acetic acid], for which the EC50 turned out to be 200 nM.
`CC1CSC(c2cc3cccc(NC4CCOCC4)c3[nH]2)=N1` (stereo not shown) [Example 32, (Tetrahydropyran-4-yl)-[2-(4,5-dihydro-4-methyl-thiazol-2-yl)-1H-indol-7-yl]-amine]: the EC50 was 2120 nM.
On the same count and under the same terms, for `CN(C)Cc1cc(NC2CCCC2)c2[nH]c(C3=N[C@H](CO)CS3)cc2c1` [Example 34, [(R)-2-(5-(dimethylamino)methyl-7-cyclopentylamino-1H-indol-2-yl)-4,5-dihydro-thiazol-4-yl]-methanol] the value was 5580 nM; for `CC(=O)Nc1cc(NC2CCCC2)c2[nH]c(C3=N[C@H](CO)CS3)cc2c1` [Example 38, [(R)-2-(5-acetylamino-7-cyclopentylamino-1H-indol-2-yl)-4,5-dihydro-thiazol-4-yl]-methanol], 2000 nM.
The same measure, in the same setting: for `COC(=O)C[C@@H]1CSC(c2cc3cc(CN4CCCC4)cc(NC4CCCC4)c3[nH]2)=N1` [Example 40, [(R)-2-(5-(pyrrolidin-1-yl)methyl-7-cyclopentylamino-1H-indol-2-yl)-4,5-dihydro-thiazol-4-yl]-acetic acid methyl ester] the value was 15600 nM; for `CC(=O)N1CC[C@@H](Nc2cccc3cc(C4=N[C@H](CO)CS4)[nH]c23)C1` [Example 43, {(R)-2-[7-((3R)-1-acetylpyrrolidin-3-yl)amino-1H-indol-2-yl]-4,5-dihydro-1,3-thiazol-4-yl}-methanol], 1000 to 10000 nM; for `CCOc1cc(NC2CCCC2)c2[nH]c(C3=N[C@@H](CC(=O)OC)CS3)cc2c1` [Example 46, [(S)-2-(5-ethoxy-7-cyclopentylamino-1H-indol-2-yl)-4,5-dihydro-thiazol-4-yl]-acetic acid methyl ester], 400 nM.
As for `CCOc1cc(NC2CCCC2)c2[nH]c(C3=N[C@@H](CC(=O)O)CS3)cc2c1` [Example 47, [(S)-2-(5-ethoxy-7-cyclopentylamino-1H-indol-2-yl)-4,5-dihydro-thiazol-4-yl]-acetic acid], the EC50 was determined as 360 nM.
As to `O=C(O)C[C@H]1CSC(c2cc3cc(Oc4ccccc4)cc(NC4CCCC4)c3[nH]2)=N1` [Example 50, [(S)-2-(5-phenoxy-7-cyclopentylamino-1H-indol-2-yl)-4,5-dihydro-thiazol-4-yl]-acetic acid], the EC50 was 250 nM.
`OC[C@@H]1CSC(c2cc3cccc(NC4CCOCC4)c3[nH]2)=N1` [Example 51, [(R)-2-(7-(tetrahydropyran-4-yl)amino-1H-indol-2-yl)-4,5-dihydro-thiazol-4-yl]-methanol]: the EC50 is 600 nM.

Staying with this experiment, now noted: primary rat hepatocytes pretreated with compound for 30 min, then doxorubicin; viability by WST-1 after 24-48 h.
For the molecule `Cc1cc(NC2CCOCC2)c2[nH]c(C3=N[C@@H](CCO)CS3)cc2c1` [Example 24, [(S)-2-(5-methyl-7-(tetrahydropyran-4-yl)amino-1H-indol-2-yl)-4,5-dihydro-thiazol-4-yl]-ethanol], the EC50 turned out to be 130 nM.
On to `CN(c1cc(F)cc2cc(C3=N[C@H](CO)CS3)[nH]c12)C1CCCC1` [Example 45, {(R)-2-[7-(methyl-cyclopentyl)amino-5-fluoro-1H-indol-2-yl]-4,5-dihydro-1,3-thiazol-4-yl}-methanol], for which the EC50 was found to be 1320 nM.
On the same count and under the same terms, for `CCOc1cc(NC2CCCC2)c2[nH]c(C3=N[C@@H](CCO)CS3)cc2c1` [Example 48, [(S)-2-(5-ethoxy-7-cyclopentylamino-1H-indol-2-yl)-4,5-dihydro-thiazol-4-yl]-ethanol] the value was 200 nM.
